What was measured:
Type in all cases: cell-based
[1] = biological target: T1, AT1R (Homo sapiens, UniProt P30556); test: BRET trafficking of AT1R/Rluc8 to Venus/Kras or Venus/Rab markers, absence of CXCR2; details: 100 nM CXCL8, 1 μM AngII
T1 construct: expressed in transfected cells; host or cells: HEK293FT
T1 sequence (P30556 1-359): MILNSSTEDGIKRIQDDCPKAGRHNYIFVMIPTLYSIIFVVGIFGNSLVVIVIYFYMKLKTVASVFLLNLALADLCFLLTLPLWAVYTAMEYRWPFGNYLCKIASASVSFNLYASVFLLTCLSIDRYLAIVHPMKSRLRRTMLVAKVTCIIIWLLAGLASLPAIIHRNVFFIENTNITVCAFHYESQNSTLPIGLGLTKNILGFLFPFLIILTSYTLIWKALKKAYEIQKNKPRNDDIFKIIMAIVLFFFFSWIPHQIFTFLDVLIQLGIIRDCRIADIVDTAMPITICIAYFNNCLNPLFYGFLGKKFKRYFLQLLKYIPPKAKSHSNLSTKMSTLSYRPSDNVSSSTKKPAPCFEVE
Procedure: (§1) HEK293FT cells were seeded in 6-well plates at a density of approximately 700,000 cells/well and maintained at 37° C., 5% CO2 in Complete Media (DMEM containing 0.3 mg/ml glutamine, 100 IU/ml penicillin and 100 μg/ml streptomycin (Gibco/Thermo Fisher)) supplemented with 10% fetal calf serum (FCS; Bovogen). Transient transfections were carried out 24 h after seeding using FuGene6™ (Promega) according to manufacturer instructions. 24 h post-transfection, cells were washed with PBS, detached using 0.05% trypsin/0.53 mM EDTA, resuspended in HEPES-buffered phenol red free Complete Media containing 5% FCS and added to a poly-L-lysine-coated white 96-well microplate (Greiner Bio-One). 48 h post-transfection, bioluminescence resonance energy transfer (BRET) assays were carried out following pre-incubation of cells with EnduRen™ (Promega) at a final concentration of 30 μM, at 37° C., 5% CO2 for 2 h. BRET measurements were taken at 37° C. using the LUMlstar™ or CLARIOstar™ (BMG Labtech). Filtered light emissions were measured for 1 s in each of the ‘donor wavelength window’ (460-490 nm for LUMlstar™ or 410-490 nm for CLARIOstar™) and ‘acceptor wavelength window’ (520-550 nm for LUMlstar™ or 520-620 nm for CLARIOstar™).
(§2) The BRET signal observed between interacting proteins is normalized by subtracting the background BRET ratio. This can be done in one of two ways (see Pfleger et al. (2006) Cell Signal 18:1664-1670; Pfleger et al. (2006) Nat Protoc 1:336-344): 1) the ratio of the 520-550 nm or 520-620 nm emission over the 460-490 nm or 410-490 nm emission for a cell sample containing only the donor construct is subtracted from the same ratio for a sample containing the interacting acceptor and donor fusion proteins; 2) the ratio of the 520-550 nm or 520-620 nm emission over the 460-490 nm or 410-490 nm emission for a cell sample treated with vehicle is subtracted from the same ratio for a second aliquot of the same cell sample treated with ligand. In the following examples, the second calculation will be used and the signal is described as ligand-induced BRET′. Furthermore, for data shown in FIGS. 4 to 20, all data points in a given set are corrected relative to the final data point prior to agonist treatment, which is fixed to zero. In keys on FIGS. 7 to 20, “>” means “followed by after 50 minutes”, with agonists added at time zero on the x-axes.
(§3) Referring now to FIG. 3 (published in Tiulpakov et al (2016) Mol. Endocrinol. 30, 889-904), the proximity of Rluc8-tagged receptors to Venus-tagged Kras plasma membrane marker, or Venus-tagged Rabs specific for distinct subcellular locations, is monitored in live cells and in real-time using BRET. The Rab markers are: Venus/Rab5 (5) for early endosomes; Venus/Rab4 (4) for early endosome recycling; Venus/Rab11a (11) for recycling endosomes; Venus/Rab7 (7) for late endosomes/lysosomes; Venus/Rab9 (9) for late endosome trafficking to the trans-Golgi network; Venus/Rab1 (1) for endoplasmic reticulum trafficking to the cis-Golgi; Venus/Rab6 (6) for Golgi apparatus and trans-Golgi network; or Venus/Rab8 (8) for trans-Golgi network to plasma membrane.

[2] = biological target: T2, AT1R-CXCR2 heteromer (Homo sapiens, UniProt P25025+P30556); test: BRET trafficking of CXCR2/Rluc8 to Venus/Kras or Venus/Rab markers, presence of HA-AT1R
T2 sequence (P25025 1-360): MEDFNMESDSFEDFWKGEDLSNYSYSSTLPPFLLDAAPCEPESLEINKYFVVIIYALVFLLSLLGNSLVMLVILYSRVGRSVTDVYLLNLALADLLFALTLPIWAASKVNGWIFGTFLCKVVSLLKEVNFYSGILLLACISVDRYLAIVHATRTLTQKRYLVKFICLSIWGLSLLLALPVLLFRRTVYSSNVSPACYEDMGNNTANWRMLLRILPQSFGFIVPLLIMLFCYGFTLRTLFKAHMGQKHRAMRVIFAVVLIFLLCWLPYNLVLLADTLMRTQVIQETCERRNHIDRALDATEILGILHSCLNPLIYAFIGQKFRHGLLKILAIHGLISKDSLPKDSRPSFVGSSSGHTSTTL
T2 sequence (P30556 1-359): T1 sequence (P30556 1-359)
Procedure: as §1, §2
The Receptor-Heteromer Investigation Technology (Receptor-HIT) is an assay configuration that provides insights into receptor complexes (Ayoub et al. (2015) PLoS One 10(3):e0119803). It is also known as GPCR-HIT when assessing GPCRs. It is an assay configuration whereby one receptor (eg. CXCR2) is labelled with one component (eg. Renilla luciferase variant Rluc8) of a proximity-based reporter system (eg. BRET), the complementary component of which (eg. Venus yellow fluorescent protein) is fused to a receptor interacting partner (eg. mGsi).
as §3

[3] = biological target: T3, AT1R and CXCR2 (Homo sapiens, UniProt P25025+P30556); test: IP1 accumulation, HEK293 cells stably-expressing CXCR2 and transiently-transfected with AT1R
T3 sequence (P30556 1-359): T1 sequence (P30556 1-359)
T3 sequence (P25025 1-360): T2 sequence (P25025 1-360)

## Angiotensin II [AngII]
[1]; Golgi apparatus to trans-Golgi network, FIG. 5I
  proximity of AT1R/Rluc8 to Venus/Rab6 (BRET): little effect
[1]; early endosome recycling, FIG. 5E
  proximity of AT1R/Rluc8 to Venus/Rab4 (BRET): increase
[1]; early endosomes, FIG. 5G
  proximity of AT1R/Rluc8 to Venus/Rab5 (BRET): substantial increase
[1]; endoplasmic reticulum to cis-Golgi, FIG. 5C
  proximity of AT1R/Rluc8 to Venus/Rab1 (BRET): increase
[1]; late endosome to trans-Golgi network, FIG. 5O
  proximity of AT1R/Rluc8 to Venus/Rab9 (BRET): increase
[1]; late endosomes/lysosomes, FIG. 5K
  proximity of AT1R/Rluc8 to Venus/Rab7 (BRET): increase
[1]; plasma membrane marker, FIG. 5A
  proximity of AT1R/Rluc8 to Venus/Kras (BRET): marked reduction
[1]; recycling endosomes, FIG. 5Q
  proximity of AT1R/Rluc8 to Venus/Rab11a (BRET): substantial increase
[1]; trans-Golgi network to plasma membrane, FIG. 5M
  proximity of AT1R/Rluc8 to Venus/Rab8 (BRET): small increase at later time-points
[2]
  proximity of CXCR2/Rluc8 to Venus/Kras (BRET): increased proximity
  proximity of CXCR2/Rluc8 to Venus/Rab1 (BRET): barely any effect
  proximity of CXCR2/Rluc8 to Venus/Rab4 (BRET): very small increase
  proximity of CXCR2/Rluc8 to Venus/Rab5 (BRET): very small increase
  proximity of CXCR2/Rluc8 to Venus/Rab6 (BRET): small increase
  proximity of CXCR2/Rluc8 to Venus/Rab7 (BRET): barely any effect
  proximity of CXCR2/Rluc8 to Venus/Rab8 (BRET): clear increase
  proximity of CXCR2/Rluc8 to Venus/Rab9 (BRET): small increase
  proximity of CXCR2/Rluc8 to Venus/Rab11a (BRET): barely any effect
[3]
  Rmax, IP1 accumulation: 209 nM

Source: patent publication US20240009191A1, “METHOD AND COMPOSITION FOR THE TREATMENT OF DISEASE” (DIMERIX BIOSCIENCE PTY LTD, priority 2019, published 2024)
